Reference: patent US20260191861A1, “INFLAMMASOME AND VEGF INHIBITION FOR RETINAL VASCULAR DISEASES” (University of Virginia Patent Foundation, priority 2022, published 2026)
“Also recorded” adds a separate entry of the source.

Key:
caspase-1 = experiment: Rhegmatogenous retinal detachment (RRD) model: retinal caspase-1 cleavage by immunoblot; type: in vivo, mouse
Experimental: (§1) All experiments involving animals were approved by the University of Virginia Institutional Animal Care and Use Committee (IACUC) and adhered to the Association for Research in Vision and Ophthalmology (ARVO) Statement for the Use of Animals in Ophthalmic and Vision Research. Animal subjects were male and female mice aged 6 to 10 weeks. Wild type C57BL/6J mice were obtained from the Jackson Laboratory (Bar Harbor, ME, USA). To anesthetize mice for study procedures, ketamine hydrochloride (100 mg/kg; Ft. Dodge Animal Health, Overland Park, KS, USA) and xylazine (10 mg/kg; Phoenix Scientific, St. Joseph, MO, USA) were delivered by intraperitoneal (IP) injection. Pupils were dilated with topical 1% tropicamide and 2.5% phenylephrine (Alcon Laboratories, Ft. Worth, TX, USA).
(§2) RRD model was established by subretinal injection (SRI) of 3 μl 1% carboxymethyl cellulose (CMC; Refresh Liquigel, Allergan, Irvine, CA, USA).
(§3) NRTIs and K-9 were delivered via intraperitoneal (IP) injection in equimolar amounts. […] Kamuvudine K-9 (3-methyl-3TC, MW=273 g/mol) was administered either at a low dose (K-9L; 90 mg/kg daily) or a high dose (K-9H; 60 mg/kg twice daily, equimolar to NRTI doses). IP injection of phosphate buffered saline (PBS) was used as control.
Retinal tissue was extracted and lysed by sonication in radioimmunoprecipitation assay (RIPA) buffer (MilliporeSigma, Darmstadt, Germany). The Pierce BCA Protein Assay Kit (ThermoFisher Scientific, Waltham, MA, USA) was used to determine protein concentrations of interest. Samples were prepared that contained equal concentrations of total protein (10-100 μg). Protein samples were resolved by SDS-PAGE and transferred onto Immobilon-FL PVDF membranes (Millipore, Billerica, MA, USA). Membranes were blocked in Odyssey Blocking Buffer (PBS) for 1 hour at room temperature, and then incubated overnight with primary antibody at 4° C. Across study experiments, the following antibodies were used: anti-mouse caspase-1 (1:1000; AG-20B-0042; AdipoGen Life Sciences, San Diego, CA, USA), and anti-mouse GAPDH (1:1000; 2118; Cell Signaling, Danvers, MA, USA). […]

[1] = system: photoreceptors (TUNEL+ cells in the ONL); experiment: RRD model: TUNEL assay of the retinal outer nuclear layer; type: in vivo, mouse
Experimental: as §1, §2, §3
Retinal cross cryosections at a thickness of 10 μm were stained with TUNEL (TdT-mediated dUTP nick-end labeling) using the In Situ Cell Death Detection Kit (Roche Diagnostics, Indianapolis, IN, USA) according to the manufacturer's′ instructions. The sections were wet-mounted with ProLong anti-fade reagent with DAPI (P36935, ThermoFisher Scientific, Waltham, MA, USA) and visualized using an A1R laser confocal microscope (Nikon, Tokyo, Japan). Fourteen representative sections, including the optic nerve, were used per treatment group. To calculate the number of TUNEL+ cells in the outer nuclear layer (ONL), the retina analysis toolkit of ImageJ (2.1.0; NIH, Bethesda, MD, USA) was used.

[2] = system: participants with diabetic macular edema; settings: week 8, included DRCR.net Protocol T patients (synthetic controls); cited from earlier work
[3] = system: participants with diabetic macular edema; experiment: Retinal central subfield thickness by spectral-domain OCT, including synthetic controls from DRCR.net Protocol T; type: in vivo, human; settings: for IPTW mixed-effect model: change in central subfield thickness, Treatment × week [8] estimate / Mixed-effect model: change in central subfield thickness, Treatment × week [8] estimate: interaction term; for IPTW mixed-effect model: change in central subfield thickness from baseline, treatment estimate (ref = Placebo) / Mixed-effect model: change in central subfield thickness from baseline, treatment estimate (ref = Placebo): main effect (week 4); for Mixed-effect model: change in central subfield thickness, Treatment × week [8] estimate / Mixed-effect model: change in central subfield thickness from baseline, treatment estimate (ref = Placebo): unweighted model
Experimental: (§4) Propensity score methods were used to select DRCR.net Protocol T study participants similar to lamivudine-treated patients. Inverse probability treatment weights (IPTW) and propensity score matching were used. To estimate the IPTW weights, a multinomial logistic regression was used to estimate propensity scores using important predictors including baseline visual acuity and baseline central subfield thickness along with age, gender, and duration of diabetes. Weights were calculated as the reciprocal of the estimated propensity score of the actual treatment received. Weights were then truncated at the 99th percentile. For the propensity score matched analysis, lamivudine-treated patients were matched to each DRCR.net Protocol T treatment arm (aflibercept, bevacizumab, ranibizumab) and placebo group, separately. Due to the limited sample size for matching within each group, propensity score models included the most important predictors of acuity change including baseline visual acuity, age and duration of diabetes.
(§5) For the IPTW analysis, a mixed-effects weighted model was fit with subject-specific random effects. […] The model's estimates, confidence intervals (CI), and P values were reported for each predictor. Additionally, model-based contrasts were conducted to compare the change in VALS from baseline between lamivudine and the Protocol T treatments.
(§6) Secondary outcomes included the change in central subfield thickness, the percentage of eyes with an improvement in VALS of 15 or more, the correlation between improvements in visual acuity and central subfield thickness, and systemic and ocular adverse events. Change in central subfield thickness was estimated using mixed-effects models, similar to the VALS analysis. To analyze a VALS improvement of at least 15 letters, logistic regression using generalized estimating equations (GEEs) was specified with an exchangeable correlation matrix. Model-based contrasts were estimated to make pairwise treatment comparisons.
In all consultations, patients underwent tomography with the Spectralis device (Heidelberg) under mydriasis. The acquisition protocol was the 6×6 mm region centered on the fovea. Data analysis from SD-OCT was restricted to the central field (1 mm in diameter) Intravitreous Injection of Anti-VEGF

[4] = system: participants with diabetic macular edema; settings: week 8, synthetic controls of DRCR.net Protocol T; cited from earlier work
[5] = system: participants with diabetic macular edema; experiment: Visual acuity (VALS) compared with synthetic controls from the DRCR.net Protocol T study (IPTW, propensity score matching, GEE); type: in vivo, human
Source text: The second analysis included participants from the lamivudine versus placebo trial, along with a synthetic comparator created using data from the DRCR.net Protocol T study. The source of the data is DRCR.net (2018) A Comparative Effectiveness Study of Intravitreal Aflibercept, Bevacizumab and Ranibizumab for Diabetic Macular Edema, retrieved from https://public.jaeb.org/drcrnet/stdy/download/206. The analyses, content, and conclusions presented herein are solely the responsibility of the authors and have not been reviewed or approved by DRCR.net.
Inclusion criteria for participants from the DRCR.net Protocol T study were based on their similarity to the lamivudine versus placebo trial design. This involved selecting only patients with type 2 diabetes, study eyes with a baseline VALS<69, and complete follow-up visual acuity measurements at weeks 4 and 8.
as §4, §5
For each propensity score matched group (e.g., lamivudine-bevacizumab, lamivudine-aflibercept), a mixed effect model was fit estimating the change in visual acuity from baseline. Subject specific random effect was included along with fixed effect predictors: treatment group, baseline VALS, central subfield thickness, eye (left vs right), age, sex, race and type 2 diabetes duration.
as §6

[6] = day 3 RRD, equimolar IP doses twice daily (K-9H 60 mg/kg, 3TC 50 mg/kg)
[7] = three days after inducing RRD, IP treatment
[8] = IPTW model with synthetic controls
[9] = Original (unweighted) model with synthetic controls

Row | Substance | degree of suppression of caspase-1 activation (caspase-1; [6]) [%+1%] | retinal cleaved caspase-1 compared with PBS-treated mice (caspase-1; [7]) | degree of photoreceptor protection [1, 6] [%+7%] | number of TUNEL+ cells in the ONL of the retina compared with PBS-treatment [1, 7] | percentage of eyes with improvement in VALS of 15 or more [2] [%] | IPTW mixed-effect model: change in central subfield thickness, Treatment × week [8] estimate [3] [μm] | IPTW mixed-effect model: change in central subfield thickness from baseline, treatment estimate (ref = Placebo) [3] [μm] | Mixed-effect model: change in central subfield thickness, Treatment × week [8] estimate [3] [μm] | Mixed-effect model: change in central subfield thickness from baseline, treatment estimate (ref = Placebo) [3] [μm] | percentage of eyes with VALS improvement of 15 or more that had minimal change in central subfield thickness (≤50 μm) [4] [%] | GEE model: odds ratio of change in VALS from baseline ≥15 (ref = Placebo) ([5]; IPTW model) | Mixed effect model: change from baseline visual acuity, treatment estimate (ref: Placebo) [5, 8] | Mixed effect model: change from baseline visual acuity, treatment estimate (ref: Placebo) ([5]; IPTW model with synthetic controls, listed as bevacizumab) | Mixed effect model: change from baseline visual acuity, treatment estimate (ref: Placebo) [5, 9] | GEE model: odds ratio of change in VALS from baseline ≥15 (ref = Placebo) ([5]; Original model) | Mixed effect model: change from baseline visual acuity, treatment estimate (ref: Placebo) ([5]; IPTW model with synthetic controls, listed as aflibercept) | Mixed effect model: change from baseline visual acuity, treatment estimate (ref: Placebo) ([5]; IPTW model with synthetic controls, listed as ranibizumab)
1 | 3-methyl-3TC [K-9] | 84 | dose-dependent and complete reduction; also recorded: inhibits RRD-induced caspase-1 cleavage | 56 | dose-dependent reduction; also recorded: protects photoreceptors |  |  |  |  |  |  |  |  |  |  |  |  | 
2 | Bevacizumab: inhibitor of vascular endothelial growth factor (VEGF), intravitreous |  |  |  |  | 24 | 74.82 | −66.35 | 84.87 | −75.55 | 29 | 10.33 | 5.32 | 5.3 | 5.36 | 6.15 |  | 
3 | Aflibercept: inhibitor of vascular endothelial growth factor (VEGF), intravitreous |  |  |  |  | 38 | 68.54 | −104.33 | 74.83 | −114.55 | 42 | 19.39 | 8.42 |  | 8.48 | 11.15 | 8.4 | 
4 | Ranibizumab: inhibitor of vascular endothelial growth factor (VEGF), intravitreous |  |  |  |  | 34 | 75 | −113.67 | 85.69 | −122.12 | 41 | 19.96 | 7.12 |  | 7.04 | 11.14 |  | 7.1
